According to US9701707B2, “Methods of synthesizing substituted purine compounds” (Epizyme, Inc., priority 2013, dated 2017):

Legend:
Assay type in all cases: physicochemical
[1] = Equilibrium solubility in organic solvents; conditions: RT; for Remaining Solid: XRPD; for solubility at 24 h: organic solvent or mixture, thermodynamic from solid
Experimental: Approximately 10 mg of Form B was weighed into a 1-ml glass vial followed by addition of 0.5 ml relevant media. Each sample was continuously stirred using a magnetic stir bar at 25° C. for 24 h. The suspension was then filtered using a nylon membrane with a pore diameter of 0.22 μm. The filtrates were diluted for HPLC analysis and final pH was measured. The solid residue of each sample was collected for XRPD analysis. The solubility of Form B was also determined in commonly used organic solvents (diluents or HPLC mobile phase). The solubility data summarized in Table 10 indicates Form B is quite soluble in MeOH, EtOH, and IPA.

[2] = Solid-state stability (chemical and physical); conditions: 5° C. Closed Dish, 7 Days
Experimental: Chemical Stability: Accurately weighed ˜10 mg Form B was placed into four 10-ml volumetric flasks. The samples were stored at 5° C. closed dish, 25° C./57% RH open dish, 40° C./75% RH open dish, and 60° C. closed dish for 7 days. The sample stored at 5° C. was used as a control. Assay and total related substances for each sample were checked at the end of 7 days.
Physical Stability: Accurately weighed ˜15 mg of Form B was placed into 5-ml glass vials and the samples were stored at 5° C. closed dish, 25° C./57% RH open dish, 40° C./75% RH open dish, and 60° C. closed dish for 7 days. Samples were analyzed by XRPD and TGA (FIG. 24).

[3] = Solution stability in pH buffers
Experimental: 0.1 mg/ml solutions of Form B were prepared in five buffers, including 0.01N HCl (pH 2), 50 mM sodium citrate (pH 4), 50 mM sodium citrate (pH 6), 50 mM sodium phosphate (pH 8), and 50 mM sodium carbonate (pH 10). Methanol was added as a co-solvent to dissolve Form B in buffers (i.e., 10% (v/v) in pH 2, 4, and 6 buffers, 20% (v/v) in pH 8 buffer, and 30% (v/v) in pH 10 buffer). Each buffer solution containing Form B was stored at 3 different temperatures: 25° C., 37° C., and 50° C. Aliquots were taken for HPLC analysis after 1 day and 7 days. pH values were also measured before and after the stability experiments.
Preparation of pH Buffers • pH 2: 0.01N HCl solution. Dilute 1 ml of 1 N HCl with H2O up to a total volume of 100 ml. Measure the pH and precisely adjust to pH=2.00 using a few microliters of 1N HCl or 1N NaOH. • pH 4: 50 mM Na citrate buffer. Prepare a 50 mM citric acid solution by diluting 10 ml of 1N citric acid with H2O up to a total volume of 200 ml. Slowly add solid NaOH under stirring to increase the pH to 3.8-4.0 and use a few microliters of 1N NaOH for final adjustment to pH 4.00. • pH 6: 50 mM Na citrate buffer. Use the same procedure as the pH 4 buffer and adjust to pH=6.00 • pH 8: 50 mM Na phosphate buffer. Prepare a 50 mM NaH2PO4 solution by dissolving 6.00 g NaH2PO4 in 1 L of H2O and a 50 mM Na2HPO4 solution by dissolving 7.10 g in 1 L of H2O. Mix 10 ml of the NaH2PO4 solution with 140 ml of the Na2HPO4 solution in a beaker. Adjust to pH 8.00 by addition of small amounts of 50 mM NaH2PO4 or Na2HPO4 solution. • pH 10: 50 mM Na carbonate buffer. Prepare a 50 mM carbonate solution by dissolving 840 mg of sodium bicarbonate (NaHCO3) in about 180 ml of H2O. Slowly adjust the pH to 10.0±0.1 by addition of 1N NaOH. Add water to reach the total volume of 200 ml and adjust to pH 10.00 with 1N NaOH.

[4] = pH 2, 25° C., 24 h, measured pH 2.1
[5] = pH 2, 25° C., 7 days, measured pH 2.1
[6] = pH 2, 37° C., 24 h, measured pH 2.1
[7] = pH 2, 37° C., 7 days, measured pH 2.1
[8] = pH 2, 50° C., 24 h, measured pH 2.1
[9] = pH 2, 50° C., 7 days, measured pH 2.1
[10] = pH 4, 25° C., 24 h, measured pH 4.2
[11] = pH 4, 25° C., 7 days, measured pH 4.2
[12] = pH 4, 37° C., 24 h, measured pH 4.1
[13] = pH 4, 37° C., 7 days, measured pH 4.1
[14] = pH 4, 50° C., 24 h, measured pH 4.1
[15] = pH 4, 50° C., 7 days, measured pH 4.2
[16] = pH 6, 25° C., 24 h, measured pH 6.2
[17] = pH 6, 25° C., 7 days, measured pH 6.2
[18] = pH 6, 37° C., 24 h, measured pH 6.2
[19] = pH 6, 37° C., 7 days, measured pH 6.3
[20] = pH 6, 50° C., 24 h, measured pH 6.2
[21] = pH 6, 50° C., 7 days, measured pH 6.2
[22] = pH 8, 25° C., 24 h, measured pH 8.2
[23] = pH 8, 25° C., 7 days, measured pH 8.2
[24] = pH 8, 37° C., 24 h, measured pH 8.2
[25] = pH 8, 37° C., 7 days, measured pH 8.3
[26] = pH 8, 50° C., 24 h, measured pH 8.3
[27] = pH 8, 50° C., 7 days, measured pH 8.3
[28] = pH 10, 25° C., 24 h, measured pH 10.9
[29] = pH 10, 25° C., 7 days, measured pH 10.9
[30] = pH 10, 37° C., 24 h, measured pH 10.9
[31] = pH 10, 37° C., 7 days, measured pH 10.9
[32] = pH 10, 50° C., 24 h, measured pH 11.0
[33] = pH 10, 50° C., 7 days, measured pH 10.9

Remaining Solid ([1]; Acetone): Form B | Remaining Solid ([1]; Acetonitrile): Form B | solubility at 24 h ([1]; Ethanol): > 87 mg/mL | solubility at 24 h ([1]; Isopropanol): > 129 mg/mL | solubility at 24 h ([1]; Methanol): > 200 mg/mL | Physical: XRPD [2]: Form B | Chemical: % Claim (Cs/Ci × 100%) ([2]; sample used as standard for the calculation): 100.0^& % | % area (100% − TRS%) [3, 4]: 98.7% | % claim (Cs/Ci × 100%) [3, 4]: 97.1% | % area (100% − TRS%) [3, 5]: 98.5% | % claim (Cs/Ci × 100%) [3, 5]: 99.1% | % area (100% − TRS%) [3, 6]: 98.7% | % claim (Cs/Ci × 100%) [3, 6]: 96.8% | % area (100% − TRS%) [3, 7]: 98.4% | % claim (Cs/Ci × 100%) [3, 7]: 97.5% | % area (100% − TRS%) [3, 8]: 98.3% | % claim (Cs/Ci × 100%) [3, 8]: 97.0% | % area (100% − TRS%) [3, 9]: 98.4% | % claim (Cs/Ci × 100%) [3, 9]: 97.0% | degradation in solution ([3]; pH 2 to 10 buffers, 25° C., 37° C., 50° C., up to 7 days): less than 5% | % area (100% − TRS%) [3, 10]: 99.4% | % claim (Cs/Ci × 100%) [3, 10]: 97.4% | % area (100% − TRS%) [3, 11]: 99.6% | % claim (Cs/Ci × 100%) [3, 11]: 100.2% | % area (100% − TRS%) [3, 12]: 99.4% | % claim (Cs/Ci × 100%) [3, 12]: 97.6% | % area (100% − TRS%) [3, 13]: 99.5% | % claim (Cs/Ci × 100%) [3, 13]: 99.0% | % area (100% − TRS%) [3, 14]: 99.4% | % claim (Cs/Ci × 100%) [3, 14]: 97.6% | % area (100% − TRS%) [3, 15]: 99.5% | % claim (Cs/Ci × 100%) [3, 15]: 98.7% | % area (100% − TRS%) [3, 16]: 99.2% | % claim (Cs/Ci × 100%) [3, 16]: 98.0% | % area (100% − TRS%) [3, 17]: 99.5% | % claim (Cs/Ci × 100%) [3, 17]: 100.0% | % area (100% − TRS%) [3, 18]: 99.3% | % claim (Cs/Ci × 100%) [3, 18]: 97.9% | % area (100% − TRS%) [3, 19]: 99.4% | % claim (Cs/Ci × 100%) [3, 19]: 99.0% | % area (100% − TRS%) [3, 20]: 99.3% | % claim (Cs/Ci × 100%) [3, 20]: 98.1% | % area (100% − TRS%) [3, 21]: 99.5% | % claim (Cs/Ci × 100%) [3, 21]: 98.9% | % area (100% − TRS%) [3, 22]: 99.2% | % claim (Cs/Ci × 100%) [3, 22]: 98.0% | % area (100% − TRS%) [3, 23]: 99.5% | % claim (Cs/Ci × 100%) [3, 23]: 99.8% | % area (100% − TRS%) [3, 24]: 99.5% | % claim (Cs/Ci × 100%) [3, 24]: 98.4% | % area (100% − TRS%) [3, 25]: 99.5% | % claim (Cs/Ci × 100%) [3, 25]: 99.3% | % area (100% − TRS%) [3, 26]: 99.5% | % claim (Cs/Ci × 100%) [3, 26]: 98.0% | % area (100% − TRS%) [3, 27]: 99.5% | % claim (Cs/Ci × 100%) [3, 27]: 98.8% | % area (100% − TRS%) [3, 28]: 99.4% | % claim (Cs/Ci × 100%) [3, 28]: 98.0% | % area (100% − TRS%) [3, 29]: 99.4% | % claim (Cs/Ci × 100%) [3, 29]: 99.7% | % area (100% − TRS%) [3, 30]: 99.4% | % claim (Cs/Ci × 100%) [3, 30]: 98.2% | % area (100% − TRS%) [3, 31]: 99.4% | % claim (Cs/Ci × 100%) [3, 31]: 99.0% | % area (100% − TRS%) [3, 32]: 99.5% | % claim (Cs/Ci × 100%) [3, 32]: 97.9% | % area (100% − TRS%) [3, 33]: 99.4% | % claim (Cs/Ci × 100%) [3, 33]: 98.9%
Compound: CC(C)N(C[C@H]1O[C@@H](n2cnc3c(N)ncnc32)[C@H](O)[C@@H]1O)[C@H]1C[C@@H](CCc2nc3cc(C(C)(C)C)ccc3[nH]2)C1 [Form B, (2R,3R,4S,5R)-2-(6-amino-9H-purin-9-yl)-5-((((1r,3S)-3-(2-(5-(tert-butyl)-1H-benzo[d]imidazol-2-yl)ethyl)cyclobutyl)(isopropyl)amino)methyl)tetrahydrofuran-3,4-diol trihydrate]
